Measurements as given in the NIST ThermoML archive (doi:10.1016/j.jct.2019.03.027).
“And” between values parts separate entries of the source, which are not always exact repeats. Equal values may be shown once.

Conditions: Liquid, Closed cell (Static) method

O=C=O [carbon dioxide]
Conditions | vapor or sublimation pressure
273.16 K | 3485.7 kPa
273.17 K | 3485.9 kPa
278.2 K | 3977 kPa and 3975 kPa
283.15 K | 4500.5 kPa and 4502 kPa
288.15 K | 5090.5 kPa and 5087 kPa
293.14 K | 5726.5 kPa and 5726.4 kPa
298.15 K | 6436.1 kPa and 6430.1 kPa
303.15 K | 7214.4 kPa
303.19 K | 7212.8 kPa
303.64 K | 7290.9 kPa
303.65 K | 7297.4 kPa
303.85 K | 7329 kPa and 7326.1 kPa
304.04 K | 7360.5 kPa and 7358.8 kPa
